We go through one molecule from PMC9130998, “Paclitaxel binds and activates C5aR1: A new potential therapeutic target for the prevention of chemotherapy-induced peripheral neuropathy and hypersensitivity reactions” (Cell Death & Disease, 2022).

This test addresses T1, complement component 5a receptor 1 (C5aR1) (Homo sapiens, UniProt P21730).
T1 construct: recombinant human C5aR1 with a C-terminal c-Myc tag
T1 sequence (P21730 1-350): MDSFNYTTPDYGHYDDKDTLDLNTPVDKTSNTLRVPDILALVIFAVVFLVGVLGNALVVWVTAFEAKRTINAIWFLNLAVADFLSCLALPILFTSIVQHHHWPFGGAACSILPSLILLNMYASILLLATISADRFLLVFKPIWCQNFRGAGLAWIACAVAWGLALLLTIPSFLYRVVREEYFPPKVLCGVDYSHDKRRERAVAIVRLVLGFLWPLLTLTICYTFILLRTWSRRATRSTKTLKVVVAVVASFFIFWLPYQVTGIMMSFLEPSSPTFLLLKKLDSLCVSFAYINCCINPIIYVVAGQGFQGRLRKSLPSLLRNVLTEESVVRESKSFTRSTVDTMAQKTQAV
Description: SPR (BIAcore X100) on immobilized receptor, dose-dependent. Format: binding.

Take `CC(=O)O[C@@]12CO[C@@H]1C[C@H](O)[C@@]1(C)C(=O)[C@H](O)C3=C(C)[C@@H](OC(=O)[C@H](O)[C@@H](NC(=O)OC(C)(C)C)c4ccccc4)C[C@@](O)([C@@H](OC(=O)c4ccccc4)[C@H]21)C3(C)C` [docetaxel]: the “SPR (BIAcore X100) on immobilized receptor, dose-dependent” value is “similarly to paclitaxel, also docetaxel can bind C5aR1 receptor in a dose dependent way (Fig. S2A–D)”.
